We go through 2 compounds from EP3167873A1, “AQUEOUS SOLUTION OF CONDENSATION PRODUCTS OF TAURINAMIDE AND METHYLENE GLYCOL FOR USE AS ANTI-INFECTIVE AGENT IN THE IMPLANTATION OF DEVICES IN CARDIAC SURGERY” (Weis, Christian Edwin, priority 2015, dated 2017).

Data set [1] concerns MRSA (Methicillin-resistenter Staphylococcus aureus). As to conditions: cited from earlier work.
The subject of data set [2] is VRE (Vancomycin-resistente Enterokokken). The conditions noted are these: cited from earlier work.
On the set-up of data set [3]: species or system Patienten. The conditions noted are these: in vivo. From the text: Schrittmacherimplantationen unter erfindungsgemäßer Verwendung einer 2,0 Gew.-%igen wässrigen Taurolidinlösung sind in der nachfolgenden Tabelle 1 tabellarisch erfasst. Die Tabelle gibt dabei die Befunde für 45 Implantationen, einschließlich von 9 Fällen des Austauschs eines Aggregats gegen ein neues, wieder, die im Zeitraum zwischen Februar und September 2015 erfolgten, wobei in allen Fällen die angegebene 2,0 Gew.-%ige wässrige Taurolidinlösung wie beschrieben zur Anwendung kam.

The test system of data set [4] is Infektionen. Put plainly: Clinical use in pacemaker/ICD implantation: device treated and pocket rinsed, infections observed after implantation. It counts as in vivo, Patienten. The text has this: Bei der Verwendung wird üblicherweise so vorgegangen, dass die implantierbare Vorrichtung vor der Implantation für die zur Erzielung der gewünschten optimalen antimikrobiellen Wirkung und zur vollständigen Benetzung aller Oberflächen der Vorrichtung erforderliche Zeit, gemäß einer bevorzugten Praxis etwa 20 Minuten, in die Lösung eingelegt wird und danach die implantierbare Vorrichtung, z.B. das Gehäuse eines Herzschrittmachers, mit einem Film der wässrigen Lösung auf ihrer Oberfläche in die vom operierenden Chirurgen vorbereitete Tasche implantiert wird.
Die Tasche wird anschließend mit der restlichen Lösung (ca. 100 ml) gespült.
In einer kardiologischen Station eines akademischen Lehrkrankenhauses, in der routinemäßig und in großer Zahl Patienten Herzschrittmacher implantiert werden, gehörte es zur Praxis, zur Infektionsvermeidung die zu implantierenden Herzschrittmachergehäuse während der Implantation mit einer Lösung von Wasserstoffperoxid zu behandeln, wobei gleichzeitig eine Wundspülung mit Wasserstoffperoxid stattfindet. Dabei kommt es zur Freisetzung von Sauerstoff und starkem Aufschäumen. Trotz der bakteriziden Eigenschaften von verdünntem Wasserstoffperoxid ist die Wirkung der Behandlung als Infektionsprophylaxe bei der Implantation von Geräten nicht verifiziert. […]

The subject of the next data set is Bakterien. The conditions noted are these: contact of the solution with microorganisms / contaminated surfaces; cited from earlier work.
In a further data set the test system is ESKAPE Pathogene. As to conditions: cited from earlier work.
The test system of the next data set is Biofilme. The conditions noted are these: cited from earlier work.
The test system of data set [5] is Infektionen. As to conditions: irrigation (wound rinsing); cited from earlier work.

Consider `O=S1(=O)CCN(CN2CCS(=O)(=O)NC2)CN1` [Taurolidin], for which the Wirksamkeit entry (in data set [1]; in data set [2]; in the data set on ESKAPE Pathogene) was “voll wirksam” in each case. In addition, the Wundheilung entry in data set [3] is recorded as “gute, ungestörte Wundheilung”. In addition, the Infektion result with Infektionen [4] (45 implantations of Tabelle 1 (February to September 2015), 2,0 Gew.-% aqueous Taurolidin solution, observed up to filing date) is “bei keinem einzigen der Patienten eine Infektion beobachtet”. For the same compound, the Infektionen result in the data set with Infektionen [4] (pacemaker laid about 20 min in 2,0 Gew.-% Taurolidin solution before implantation, pocket rinsed with rest (ca. 100 ml), comparable number of implantations) is listed as “keinerlei Infektionen beobachtet”. Further, the “Kontaktdauer bis zur vollen antibakteriellen Wirkung” value in the data set with Bakterien is recorded as not below 10 Minuten. Also, the “Wirksamkeit gegen Biofilme” value with Biofilme is “wirksam”.

As to Povidon-Iod, the “Verbesserung der Infektionsrate” value in the data set with Infektionen [5] is recorded as “keine nennenswerte Verbesserung beobachtet”.
